The molecules below were run on Echinochloa crus galli (assay: Pre-emergence herbicidal action against harmful plants). Settings: Echinochloa, 504 h, dosage 320 g/ha, visual assessment after 3 weeks (Table A), read-out: Herbicidal action against ECHCG.
Format: in vivo
Text: (§1) The abbreviations used in the tables below denote: • ABUTH Abutilon theophrasti • AMARE Amaranthus retroflexus • ECHCG Echinochloa crus galli • PHBPU Phartoitis purpureum • STEME Stellaria media • ALOMY Alopecurus myosuroides • AVEFA Avena fatua • MATIN Matricaria inodora • POLCO Fallopia convolvulus • VERPE Veronica persica 1. Pre-emergence Herbicidal Action Against Harmful Plants Seeds of monocotyledonous and dicotyledonous weed plants and crop plants are placed in wood-fibre pots in sandy loam and covered with soil. The compounds according to the invention and the compounds known from the prior art, formulated in the form of wettable powders (WP) or as emulsion concentrates (EC), are then applied as aqueous suspension or emulsion at a water application rate of 600 to 800 I/ha (converted) with the addition of 0.2% of wetting agent to the surface of the covering soil. After the treatment, the pots are placed in a greenhouse and kept under good growth conditions for the test plants. The visual assessment of the damage to the test plants is carried out after a trial period of 3 weeks by comparison with untreated controls (herbicidal activity in percent (%): 100% activity=the plants have died, 0% activity=like control plants, —=not tested). The results of comparative table A show the compounds according to the invention have a higher herbicidal activity than the compounds of the greatest structural similarity known from the closest prior art.

SMILES	pest or weed control at 320 g/ha
CCN(C)C(=O)COc1c(S(=O)(=O)CC)ccc(C(=O)C2=C(O)CCCC2=O)c1Cl [Compound S6, reference compound]	90%
CN(C)C(=O)COc1c(S(C)(=O)=O)ccc(C(=O)C2=C(O)CCCC2=O)c1C(F)(F)F [Compound E4]	100%
CCN(CC)C(=O)COc1c(S(C)(=O)=O)ccc(C(=O)C2=C(O)CCCC2=O)c1Cl [Compound S2, reference compound]	70%

What follows are molecules tested on Matricaria inodora in the same assay as above. Settings: Tripleurospermum inodorum, 504 h, dosage 320 g/ha, visual assessment after 3 weeks (Table A), read-out: Herbicidal action against MATIN.
Format: in vivo
Text: as §1

SMILES	pest or weed control at 320 g/ha
CCN(C)C(=O)COc1c(S(=O)(=O)CC)ccc(C(=O)C2=C(O)CCCC2=O)c1Cl [Compound S6, reference compound]	80%
CN(C)C(=O)COc1c(S(C)(=O)=O)ccc(C(=O)C2=C(O)CCCC2=O)c1C(F)(F)F [Compound E4]	100%
CCN(CC)C(=O)COc1c(S(C)(=O)=O)ccc(C(=O)C2=C(O)CCCC2=O)c1Cl [Compound S2, reference compound]	60%

The molecules below were run on Abutilon theophrasti in the same assay as above. Settings: Abutilon theophrasti, 504 h, dosage 320 g/ha, visual assessment after 3 weeks (Table A), read-out: Herbicidal action against ABUTH.
Format: in vivo
Text: as §1

SMILES	pest or weed control at 320 g/ha
CCN(C)C(=O)COc1c(S(=O)(=O)CC)ccc(C(=O)C2=C(O)CCCC2=O)c1Cl [Compound S6, reference compound]	100%
CN(C)C(=O)COc1c(S(C)(=O)=O)ccc(C(=O)C2=C(O)CCCC2=O)c1C(F)(F)F [Compound E4]	100%
CCN(CC)C(=O)COc1c(S(C)(=O)=O)ccc(C(=O)C2=C(O)CCCC2=O)c1Cl [Compound S2, reference compound]	40%

The molecules below were run on Amaranthus retroflexus in the same assay as above. Settings: 504 h, dosage 320 g/ha, visual assessment after 3 weeks (Table A), read-out: Herbicidal action against AMARE.
Format: in vivo
Text: as §1

SMILES	pest or weed control at 320 g/ha
CCN(C)C(=O)COc1c(S(=O)(=O)CC)ccc(C(=O)C2=C(O)CCCC2=O)c1Cl [Compound S6, reference compound]	100%
CN(C)C(=O)COc1c(S(C)(=O)=O)ccc(C(=O)C2=C(O)CCCC2=O)c1C(F)(F)F [Compound E4]	100%
CCN(CC)C(=O)COc1c(S(C)(=O)=O)ccc(C(=O)C2=C(O)CCCC2=O)c1Cl [Compound S2, reference compound]	100%

The molecules below were run on Phartoitis purpureum in the same assay as above. Settings: dosage 320 g/ha, visual assessment after 3 weeks (Table A).
Format: in vivo
Text: as §1

SMILES	Herbicidal action against PHBPU
CCN(CC)C(=O)COc1c(S(C)(=O)=O)ccc(C(=O)C2=C(O)CCCC2=O)c1Cl [Compound S2, reference compound]	70%

What follows are molecules tested on Stellaria media in the same assay as above. Settings: 504 h, dosage 320 g/ha, visual assessment after 3 weeks (Table A), read-out: Herbicidal action against STEME.
Format: in vivo
Text: as §1

SMILES	pest or weed control at 320 g/ha
CCN(C)C(=O)COc1c(S(=O)(=O)CC)ccc(C(=O)C2=C(O)CCCC2=O)c1Cl [Compound S6, reference compound]	80%
CN(C)C(=O)COc1c(S(C)(=O)=O)ccc(C(=O)C2=C(O)CCCC2=O)c1C(F)(F)F [Compound E4]	90%
CCN(CC)C(=O)COc1c(S(C)(=O)=O)ccc(C(=O)C2=C(O)CCCC2=O)c1Cl [Compound S2, reference compound]	20%

The molecules below were run on Veronica persica in the same assay as above. Settings: 504 h, dosage 320 g/ha, visual assessment after 3 weeks (Table A), read-out: Herbicidal action against VERPE.
Format: in vivo
Text: as §1

SMILES	pest or weed control at 320 g/ha
CCN(C)C(=O)COc1c(S(=O)(=O)CC)ccc(C(=O)C2=C(O)CCCC2=O)c1Cl [Compound S6, reference compound]	90%
CN(C)C(=O)COc1c(S(C)(=O)=O)ccc(C(=O)C2=C(O)CCCC2=O)c1C(F)(F)F [Compound E4]	100%
CCN(CC)C(=O)COc1c(S(C)(=O)=O)ccc(C(=O)C2=C(O)CCCC2=O)c1Cl [Compound S2, reference compound]	100%

These molecules were tested on Echinochloa crus galli (assay: Post-emergence herbicidal action against harmful plants). Settings: 504 h, dosage 80 g/ha, visual rating after about 3 weeks (Table D), read-out: Herbicidal action against ECHCG.
Format: in vivo
Text: (§2) The abbreviations used in the tables below denote: • ABUTH Abutilon theophrasti • AMARE Amaranthus retroflexus • ECHCG Echinochloa crus galli • PHBPU Phartoitis purpureum • STEME Stellaria media • ALOMY Alopecurus myosuroides • AVEFA Avena fatua • MATIN Matricaria inodora • POLCO Fallopia convolvulus • VERPE Veronica persica 1. Pre-emergence Herbicidal Action Against Harmful Plants Seeds of monocotyledonous and dicotyledonous weed and crop plants are placed in sandy loam in wood-fibre pots, covered with soil and cultivated in a greenhouse under good growth conditions. 2 to 3 weeks after sowing, the test plants are treated at the one-leaf stage. The compounds according to the invention, formulated in the form of wettable powders (WP) or as emulsion concentrates (EC), are then sprayed as aqueous suspension or emulsion at a water application rate of 600 to 800 I/ha (converted) with the addition of 0.2% of wetting agent onto the green parts of the plants. After the test plants have been kept in the greenhouse under optimum growth conditions for about 3 weeks, the activity of the preparations is rated visually in comparison to untreated controls (herbicidal activity in percent (%): 100% activity=the plants have died, 0% activity=control plants, —=not tested).

SMILES	pest or weed control at 80 g/ha
CCN(C)C(=O)COc1c(S(=O)(=O)CC)ccc(C(=O)C2=C(O)CCCC2=O)c1Cl [Compound S6, reference compound]	20%
CCN(CC)C(=O)COc1c(S(C)(=O)=O)ccc(C(=O)C2=C(O)CCCC2=O)c1Cl [Compound S2, reference compound]	30%

Each molecule was assayed on Matricaria inodora in the same assay as above. Settings: Tripleurospermum inodorum, 504 h, dosage 80 g/ha, visual rating after about 3 weeks (Table D), read-out: Herbicidal action against MATIN.
Format: in vivo
Text: as §2

SMILES	pest or weed control at 80 g/ha
CCN(C)C(=O)COc1c(S(=O)(=O)CC)ccc(C(=O)C2=C(O)CCCC2=O)c1Cl [Compound S6, reference compound]	80%
CN(C)C(=O)COc1c(S(C)(=O)=O)ccc(C(=O)C2=C(O)CCCC2=O)c1C(F)(F)F [Compound E4]	90%
CCN(CC)C(=O)COc1c(S(C)(=O)=O)ccc(C(=O)C2=C(O)CCCC2=O)c1Cl [Compound S2, reference compound]	70%

Same assay, conditions: Tripleurospermum inodorum, 504 h, dosage 80 g/ha, visual rating after about 3 weeks (Table E), read-out: Herbicidal action against MATIN

SMILES	pest or weed control at 80 g/ha
CCS(=O)(=O)c1ccc(C(=O)C2=C(O)CCCC2=O)c(C(F)(F)F)c1OCC(=O)NC [Compound E10]	90%
CCS(=O)(=O)c1ccc(C(=O)C2=C(O)CCCC2=O)c(Cl)c1OCC(=O)NC [Compound S10, reference compound]	70%

The molecules below were run on Fallopia convolvulus in the same assay as above. Settings: 504 h, dosage 80 g/ha, visual rating after about 3 weeks (Table D), read-out: Herbicidal action against POLCO.
Format: in vivo
Text: as §2

SMILES	pest or weed control at 80 g/ha
CCN(C)C(=O)COc1c(S(=O)(=O)CC)ccc(C(=O)C2=C(O)CCCC2=O)c1Cl [Compound S6, reference compound]	0%
CN(C)C(=O)COc1c(S(C)(=O)=O)ccc(C(=O)C2=C(O)CCCC2=O)c1C(F)(F)F [Compound E4]	70%

Same assay, conditions: 504 h, dosage 80 g/ha, visual rating after about 3 weeks (Table E), read-out: Herbicidal action against POLCO

SMILES	pest or weed control at 80 g/ha
CCS(=O)(=O)c1ccc(C(=O)C2=C(O)CCCC2=O)c(C(F)(F)F)c1OCC(=O)NC [Compound E10]	100%
CCS(=O)(=O)c1ccc(C(=O)C2=C(O)CCCC2=O)c(Cl)c1OCC(=O)NC [Compound S10, reference compound]	80%

Each molecule was assayed on Abutilon theophrasti in the same assay as above. Settings: 504 h, dosage 80 g/ha, visual rating after about 3 weeks (Table D), read-out: Herbicidal action against ABUTH.
Format: in vivo
Text: as §2

SMILES	pest or weed control at 80 g/ha
CCN(C)C(=O)COc1c(S(=O)(=O)CC)ccc(C(=O)C2=C(O)CCCC2=O)c1Cl [Compound S6, reference compound]	90%
CN(C)C(=O)COc1c(S(C)(=O)=O)ccc(C(=O)C2=C(O)CCCC2=O)c1C(F)(F)F [Compound E4]	90%
CCN(CC)C(=O)COc1c(S(C)(=O)=O)ccc(C(=O)C2=C(O)CCCC2=O)c1Cl [Compound S2, reference compound]	80%

Same assay, conditions: 504 h, dosage 80 g/ha, visual rating after about 3 weeks (Table E), read-out: Herbicidal action against ABUTH

SMILES	pest or weed control at 80 g/ha
CCS(=O)(=O)c1ccc(C(=O)C2=C(O)CCCC2=O)c(C(F)(F)F)c1OCC(=O)NC [Compound E10]	100%
CCS(=O)(=O)c1ccc(C(=O)C2=C(O)CCCC2=O)c(Cl)c1OCC(=O)NC [Compound S10, reference compound]	90%

Each molecule was assayed on Amaranthus retroflexus in the same assay as above. Settings: 504 h, dosage 80 g/ha, visual rating after about 3 weeks (Table D), read-out: Herbicidal action against AMARE.
Format: in vivo
Text: as §2

SMILES	pest or weed control at 80 g/ha
CCN(C)C(=O)COc1c(S(=O)(=O)CC)ccc(C(=O)C2=C(O)CCCC2=O)c1Cl [Compound S6, reference compound]	80%
CN(C)C(=O)COc1c(S(C)(=O)=O)ccc(C(=O)C2=C(O)CCCC2=O)c1C(F)(F)F [Compound E4]	90%
CCN(CC)C(=O)COc1c(S(C)(=O)=O)ccc(C(=O)C2=C(O)CCCC2=O)c1Cl [Compound S2, reference compound]	90%

Each molecule was assayed on Phartoitis purpureum in the same assay as above. Settings: 504 h, dosage 80 g/ha, visual rating after about 3 weeks (Table D), read-out: Herbicidal action against PHBPU.
Format: in vivo
Text: as §2

SMILES	pest or weed control at 80 g/ha
CCN(C)C(=O)COc1c(S(=O)(=O)CC)ccc(C(=O)C2=C(O)CCCC2=O)c1Cl [Compound S6, reference compound]	80%
CCN(CC)C(=O)COc1c(S(C)(=O)=O)ccc(C(=O)C2=C(O)CCCC2=O)c1Cl [Compound S2, reference compound]	90%

Same assay, conditions: 504 h, dosage 80 g/ha, visual rating after about 3 weeks (Table E), read-out: Herbicidal action against PHPBU

SMILES	pest or weed control at 80 g/ha
CCS(=O)(=O)c1ccc(C(=O)C2=C(O)CCCC2=O)c(C(F)(F)F)c1OCC(=O)NC [Compound E10]	100%
CCS(=O)(=O)c1ccc(C(=O)C2=C(O)CCCC2=O)c(Cl)c1OCC(=O)NC [Compound S10, reference compound]	90%

Each molecule was assayed on Stellaria media in the same assay as above. Settings: 504 h, dosage 80 g/ha, visual rating after about 3 weeks (Table D), read-out: Herbicidal action against STEME.
Format: in vivo
Text: as §2

SMILES	pest or weed control at 80 g/ha
CCN(C)C(=O)COc1c(S(=O)(=O)CC)ccc(C(=O)C2=C(O)CCCC2=O)c1Cl [Compound S6, reference compound]	90%
CN(C)C(=O)COc1c(S(C)(=O)=O)ccc(C(=O)C2=C(O)CCCC2=O)c1C(F)(F)F [Compound E4]	100%
CCN(CC)C(=O)COc1c(S(C)(=O)=O)ccc(C(=O)C2=C(O)CCCC2=O)c1Cl [Compound S2, reference compound]	90%

What follows are molecules tested on Veronica persica in the same assay as above. Settings: 504 h, dosage 80 g/ha, visual rating after about 3 weeks (Table D), read-out: Herbicidal action against VERPE.
Format: in vivo
Text: as §2

SMILES	pest or weed control at 80 g/ha
CCN(C)C(=O)COc1c(S(=O)(=O)CC)ccc(C(=O)C2=C(O)CCCC2=O)c1Cl [Compound S6, reference compound]	100%
CN(C)C(=O)COc1c(S(C)(=O)=O)ccc(C(=O)C2=C(O)CCCC2=O)c1C(F)(F)F [Compound E4]	100%
CCN(CC)C(=O)COc1c(S(C)(=O)=O)ccc(C(=O)C2=C(O)CCCC2=O)c1Cl [Compound S2, reference compound]	90%

Source: patent publication US8557741B2, “3-aminocarbonyl-substituted benzoylcyclohexanediones and their use as herbicides” (Bayer CropScience AG, priority 2010, dated 2013)
